The text below walks through data of patent US20030219866A1, “Stem cell-like cells” (priority 2000, published 2003).

Holding throughout (type): cell-based
The subject of test [1] is human Neural Progenitor Cells. The test is described as follows: OCT4 expression after TSA treatment in hNPC (RT-PCR). Also noted: key to OCT4 expression: +/− expression detectable; (+) clear expression; (++ strong expression). As to conditions: for OCT4 expression: hNPC, RT-PCR. As for the experimental part: (§1) (a) RNA isolation and eDNA synthesis. At the time of harvest, medium was aspirated and cells were lyzed using Ultraspec™ (Biotecx) or Trizol® (Gibco BRL). RNA was isolated according to the instructions of the suppliers. RNA concentration was determined by measuring OD260 and equal amounts of RNA of the indicated cell lines were subjected to conversion into cDNA. RNA was reversed transcribed using random primers and 15 units M-MuLV (Promega) in a reaction mixture containing 4 μl 25 mM MgCl2, 2 μl of each of the four dNTPs at 10 mM and 0.5 μl RNasin (Promega) in a total volume of 20 μl. RNA and 0.5 μg random hexamers were pre-incubated for 10 minutes at 55-60°. Mixtures were incubated at 37° C. for 1 hour.
(§2) (b) PCR reactions. PCR was were performed using 2 μl cDNA, 2.5 μl 10× SuperTaq buffer (without magnesium), 0.25 μl forward primer, 0.25 μl reverse primer, 0.50 μl 10 mM dNTPs, 1.25 Units of SuperTaq polymerase. In the case of β2-microglobulin 1.5 mM MgCl2 was added to the reaction mixture. For mouse UTF1 PCR, normal Taq polymerase (Roche) was used with a buffer containing MgCl2. The conditions for the PCR reaction were: 5 minutes 94° C.; 28 cycles of 30 seconds 94° C., 30 seconds 60° C. and 30 seconds 72° C.; 10 minutes 72° C., using a PTC-200, Peltier Thermal cycler. PCR-fragments were run on a 2% agarose gel and visualized by ethidium bromide staining.
(§3) HDAC activity is inhibited by Trichostatin A (TSA). Human mesenchymal stem cells and mouse and human neuronal progenitor cells were treated by TSA at concentration of 10 and 50 ng/ml. After 24 and 48 hours, OCT4 expression was analyzed by RT-PCR.

Test [2] deals with mouse Neural Progenitor Cells. The test is described as follows: OCT4 expression after TSA treatment in mNPC (RT-PCR). Also noted: key to OCT4 expression: +/− expression detectable; (+) clear expression; (++ strong expression). As to conditions: for OCT4 expression: mNPC (eGFP/bcl2), RT-PCR. As for the experimental part:
as §1, §2, §3

Test [3] relates to human Mesenchymal Stem Cells. The experiment in a line: OCT4 expression after TSA treatment in hMSC (RT-PCR). Also noted: key to OCT4 expression: +/− expression detectable; (+) clear expression; (++ strong expression). As to conditions: for OCT4 expression: hMSC, RT-PCR. How it is done:
as §1, §2, §3

Test [4] deals with TSA treated cells. The experiment in a line: UTF1 expression and TGF-beta/activin/BMP responsiveness of TSA treated cells.

Take `CC(/C=C/C(=O)NO)=C\[C@@H](C)C(=O)c1ccc(N(C)C)cc1` [TSA, Trichostatin A]: the OCT4 expression result in test [1] (TSA 10 ng/ml, 24 hours) is on record as “+”; in test [1] (TSA 10 ng/ml, 48 hours), “++”; in test [1] (TSA 50 ng/ml, 24 hours), “+”; in test [2] (TSA 10 ng/ml, 24 hours), “+”; in test [2] (TSA 10 ng/ml, 48 hours), “++”; in test [2] (TSA 50 ng/ml, 24 hours) it was “+”. Also, the OCT4 expression entry in test [3] (TSA 10 ng/ml, 24 hours) is reported as “+”; in test [3] (TSA 10 ng/ml, 48 hours), “++”; in test [3] (TSA 50 ng/ml, 24 hours) it was “+”; in test [3] (TSA 50 ng/ml, 48 hours), “++”. For the same molecule, the SSEA4 expression result is given as “increased” in test [1] (human Neural Progenitor Cells, TSA treated, in parallel with upregulation of OCT4) and “increased” in test [3] (human MSC, TSA treated, in parallel with upregulation of OCT4). For the same molecule, the “expression of OCT4” value is on record as “enhances” in test [1] (human Neural Progenitor Cells, TSA treatment for 24 to 48 hours); “enhances” in test [2] (mouse neural progenitor cells, TSA treatment for 24 to 48 hours); “enhances” in test [3] (human MSC, TSA treatment for 24 to 48 hours). In test [4], the “TGF-beta, activin and BMP responsiveness” value was “reduction”. For the same molecule, the “expression of UTF1” value in test [4] is reported as “increased”.
